Measured values as given in the OligoGym collection.
Several values for one entry are separate records, joined by “and”; a condition that tells them apart may be missing. Identical values can stand only once. After the bases stand the sugars from the 5' end (letter, count) and the backbone: PS all phosphorothioate, else s phosphorothioate and o phosphodiester by linkage. Methylation of C is not given here. e = 2'-O-(2-methoxyethyl) (MOE); k = constrained ethyl (cEt); d = 2'-deoxy (DNA)

Biological target: IRF4
Conditions: ASO

Sequence	target mRNA inhibition (SK-MEL-28, 4 µM)	target mRNA inhibition (MM.1R, 1 µM)	further results
AGAAAGAGCTGGTAGG (sugars k3 d10 k3, PS)	36%	–	–
TGCCAGTGGTGGCCGC (sugars k3 d10 k3, PS)	30%	–	–
CCGCAGCATCGAACTC (sugars k3 d10 k3, PS)	42%	–	–
GTCCAGGTTGCTGGCG (sugars k3 d10 k3, PS)	53%	–	–
GCTCAGCGCAGATGGG (sugars k3 d10 k3, PS)	-2%	–	–
AGGAAGCACTGGCATC (sugars k3 d10 k3, PS)	57%	–	–
AACCACAAGCAGTGAT (sugars k3 d10 k3, PS)	17%	–	–
AGGGTCACAGGTAAGG (sugars k3 d10 k3, PS)	68%	–	–
TGCCGAGATATAAATA (sugars k3 d10 k3, PS)	23%	–	–
AGTGATGTCAGGTTTT (sugars kkdddddddddekeke, PS)	–	33%	–
ATGGCGAGTTGGCACA (sugars k3 d10 k3, PS)	–	49% and 48%	–
GTGTGCTTGCCAAGCC (sugars kkdddddddddkdkdk, PS)	–	59%	–
CCACATGTCCCGTGGG (sugars k3 d10 k3, PS)	–	-28%	–
TGTGCAAAACCAGTAC (sugars k3 d10 k3, PS)	–	-20%	–
GCATTTTCCAGAAAAT (sugars k4 d8 k4, PS)	37%	–	–
CAAACTATAATTGGCA (sugars k3 d10 k3, PS)	53%	–	–
GAAGCATTTTATCATC (sugars kkkdddddddddkeke, PS)	–	8%	–
TTTTAAGGCCCTGTCA (sugars k3 d10 k3, PS)	18%	–	–
GACAAATCTTCTGCCT (sugars k3 d10 k3, PS)	26%	–	–
ATAGTAAATATCCTGT (sugars k3 d10 k3, PS)	36%	–	–
GGTCAAAAAGATGCAG (sugars k3 d10 k3, PS)	51%	–	–
TGCATGAGGGTGACAC (sugars k3 d10 k3, PS)	45%	–	–
CATCGAACTCCTGAGT (sugars k3 d10 k3, PS)	31%	–	–
TGATAGGTATACTTAA (sugars k3 d10 k3, PS)	28%	–	–
TAAAACTGCGCTCTCT (sugars k3 d10 k3, PS)	–	-14%	–
GCGGAGCATCAACAAA (sugars k3 d10 k3, PS)	30%	–	–

Sequence	target mRNA inhibition (SK-MEL-28, 4 µM)	target mRNA inhibition (MM.1R, 1 µM)	further results
TGAGATAAGAAGCACT (sugars k3 d10 k3, PS)	20%	–	–
CCTAAATCACCCTGGT (sugars k3 d10 k3, PS)	27%	–	–
CGCCCGACCCTCCCCA (sugars k3 d10 k3, PS)	–	-24%	–
ACGTGTGCTTGCCAAG (sugars k3 d10 k3, PS)	–	54% and 55%	–
CAAACACTAATACCTA (sugars k3 d10 k3, PS)	31%	–	–
TTTATGAGCTTCCACA (sugars k3 d10 k3, PS)	54%	–	–
TCCTTTGGGTGCTTTC (sugars k3 d10 k3, PS)	32%	–	–
CAGCTCACCGCGCTCA (sugars k3 d10 k3, PS)	42%	–	–
TCATACCCAATAGTCT (sugars k3 d10 k3, PS)	52%	–	–
TCACAAAGCGGGTTCA (sugars k3 d10 k3, PS)	23%	–	–
CCAGTACAGTCCACTC (sugars k3 d10 k3, PS)	–	-6%	–
CACCGAACACACCAGG (sugars k3 d10 k3, PS)	20%	–	–
TGGCGGATAGATCTGT (sugars k3 d10 k3, PS)	34%	–	–
TGCTTGAGGTTTTCCT (sugars kkkddddddddkekek, PS)	–	27%	–
AGCTAGAACATGATGA (sugars k3 d10 k3, PS)	5%	–	–
TGTCACCTGGCAACCT (sugars k3 d10 k3, PS)	–	-4%	–
AATCAGATGATGTCTA (sugars k4 d8 k4, PS)	-13%	–	–
CGCGCAAAGGGCAAGG (sugars k3 d10 k3, PS)	34%	–	–
ATAGGAAGTTTACTAA (sugars k3 d10 k3, PS)	13%	–	–
GACTCCGGGAGCCTGG (sugars k3 d10 k3, PS)	65%	–	–
GGAGTACCCGCAGAGA (sugars k3 d10 k3, PS)	25%	–	–
GACGAACGCGCAAAAC (sugars k3 d10 k3, PS)	–	15%	–
ATTGAAATGGAGCATC (sugars k3 d10 k3, PS)	-1%	–	–
GTCAAAGAGCTTGCAG (sugars k3 d10 k3, PS)	44%	–	–
CAAGACATAAACCAAG (sugars k3 d10 k3, PS)	51%	–	–
AAGATACAAAACGGAC (sugars k3 d10 k3, PS)	39%	–	–

Sequence	target mRNA inhibition (SK-MEL-28, 4 µM)	target mRNA inhibition (MM.1R, 1 µM)	further results
CTTATAGCACTCTCCT (sugars k3 d10 k3, PS)	33%	–	–
GGGCTGTCCCTAGTGC (sugars k3 d10 k3, PS)	-9%	–	–
ACTGCTTGAGGTTTTC (sugars kkdddddddddkekek, PS)	–	24%	–
TCGAATCTGCCCAAAG (sugars k3 d10 k3, PS)	–	23%	–
AGCTTGATAAAGGCTG (sugars k3 d10 k3, PS)	36%	–	–
CTCCTTTTTTGGCTCC (sugars k4 d8 k4, PS)	7%	–	–
GGCATCATGTAGTTGT (sugars k3 d10 k3, PS)	–	-1%	–
AGCAAGAGCTTACTGT (sugars k3 d10 k3, PS)	–	-6%	–
GAGTTACCGCATTGCT (sugars k3 d10 k3, PS)	–	47% and 52%	target mRNA inhibition (MM.1R, 0.0625 µM): -9%; target mRNA inhibition (MM.1R, 0.25 µM): 16%; target mRNA inhibition (MM.1R, 4 µM): 81%
CGAAAAGTCAAAATAC (sugars k3 d10 k3, PS)	0%	–	–
TGCCGTGTCAGGGTCG (sugars k3 d10 k3, PS)	11%	–	–
ACCTCAGTTTGTGAAG (sugars kkkdddddddddkeke, PS)	–	8%	–
CAAATTAAAGAGCGCA (sugars k3 d10 k3, PS)	57%	–	–
CCTGTCACCTGGCAAC (sugars k4 d8 k4, PS)	37%	–	–
ACACGGGAATTTCCAT (sugars k3 d10 k3, PS)	56%	–	–
AAGTGGAACTCATAGG (sugars k3 d10 k3, PS)	–	25%	–
AGTCGCGCAAGTCTAC (sugars k3 d10 k3, PS)	–	0%	–
AAGGTTCCTGTCACCT (sugars k4 d8 k4, PS)	14%	–	–
ACACACCACTATTCGA (sugars k3 d10 k3, PS)	35%	–	–
TGGCCTTCCTGGCGGA (sugars k3 d10 k3, PS)	9%	–	–
TCTATAGTGTTCCAGG (sugars kkkddddddddkekek, PS)	–	13%	–
TATGCCATGGACAAGT (sugars k3 d10 k3, PS)	19%	–	–
ACCCAAGACTCCCAGA (sugars k3 d10 k3, PS)	45%	–	–
GGGTATTTATAACCGG (sugars k3 d10 k3, PS)	59%	1% and 7% and 26%	target mRNA inhibition (MM.1R, 0.0625 µM): -16% and 5% and 1%; target mRNA inhibition (MM.1R, 0.074 µM): -4%; target mRNA inhibition (MM.1R, 0.222 µM): -19%; target mRNA inhibition (MM.1R, 0.666 µM): -4%; target mRNA inhibition (MM.1R, 2 µM): 9%; target mRNA inhibition (MM.1R, 4 µM): 12% and 24% and 34%
TCAGTTTGTGAAGCAT (sugars k2 d9 e3 k2, PS)	–	39%	–
TGGGATTATATACTGG (sugars kkddddddddddkeke, PS)	–	68% and 60%	target mRNA inhibition (MM.1R, 0.0625 µM): 21%; target mRNA inhibition (MM.1R, 0.25 µM): 43%; target mRNA inhibition (MM.1R, 4 µM): 83%

Sequence	target mRNA inhibition (SK-MEL-28, 4 µM)	target mRNA inhibition (MM.1R, 1 µM)	further results
AAAAATGTCCCATCCA (sugars k3 d10 k3, PS)	30%	–	–
ACGAAACACAGTCTGC (sugars k3 d10 k3, PS)	52%	–	–
TCACAAGCTGGGCCTT (sugars k3 d10 k3, PS)	30%	–	–
AGTCAGACAGTGCGCC (sugars k3 d10 k3, PS)	10%	–	–
GTGTTTGGTGGGAATC (sugars k3 d10 k3, PS)	46%	–	–
CAGTTGTAAATGAGTC (sugars e1 k2 d9 k2 e2, PS)	–	55%	target mRNA inhibition (MM.1R, 0.074 µM): 12%; target mRNA inhibition (MM.1R, 0.222 µM): 34%; target mRNA inhibition (MM.1R, 0.666 µM): 51%; target mRNA inhibition (MM.1R, 2 µM): 70%
TCCCAACCCGCTTCTC (sugars k3 d10 k3, PS)	14%	–	–
GCGCATTTCAGTAAAT (sugars k3 d10 k3, PS)	33%	–	–
CAAAAGGTAGTAGACC (sugars k3 d10 k3, PS)	–	11%	–
ACGAGGTTGCCGAGAT (sugars k3 d10 k3, PS)	–	62% and 41%	target mRNA inhibition (MM.1R, 0.0625 µM): -16%; target mRNA inhibition (MM.1R, 0.25 µM): 7%; target mRNA inhibition (MM.1R, 4 µM): 78%
CATTGGTACGGGATTT (sugars k3 d10 k3, PS)	16%	–	–
ACTGTTTTAAGAGGCG (sugars k3 d10 k3, PS)	68% and 70%	–	–
TTCAAAGCGCACCGCA (sugars k3 d10 k3, PS)	49%	–	–
TTCATGTAAAGTCTGC (sugars kdddddddddkekeke, PS)	–	9% and 3%	–
CCACATAACTCAGGCA (sugars k3 d10 k3, PS)	70%	–	–
TCTACTGGAGTCAAGC (sugars k3 d10 k3, PS)	–	30%	–
GGCCGGCCCGGGCGCA (sugars k3 d10 k3, PS)	1%	–	–
AGGGAACAGATAGTTA (sugars k3 d10 k3, PS)	34%	–	–
AACTTACAGGACTATT (sugars k3 d10 k3, PS)	13%	–	–
TTCTTTATGCGAAGAA (sugars k3 d10 k3, PS)	9%	–	–
GGCAGTTCTTTCAGCA (sugars k3 d10 k3, PS)	37%	–	–
GTTGTAAATGAGTCGG (sugars kkdddddddddekeke, PS)	–	48%	–
GAATGCATAACACGGT (sugars k3 d10 k3, PS)	61%	–	–
CAGGACCCGGCTCCCG (sugars k3 d10 k3, PS)	14%	–	–
GGGCACAAGCATAAAA (sugars k3 d10 k3, PS)	20%	–	–
